What was measured:
OPM-2 = assay: cells; type: functional, cell-based, Homo sapiens; settings: Homo sapiens, OPM-2;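 note: growth of OPM-2 cells measured with a viability assay, IC50 for suppression of proliferation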
Description: SANGER: Inhibition of human OPM-2 cell growth in a cell viability assay.

CP50-MEL-B = assay: cells; type: functional, cell-based; settings: Homo sapiens;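 note: growth inhibition of the human cell line, measured with a cell viability read-out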
Description: SANGER: Inhibition of human CP50-MEL-B cell growth in a cell viability assay.

KP-N-YN = assay: cells; type: functional, cell-based; settings: Homo sapiens;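 note: growth inhibition of KP-N-YN cells, read out with a cell viability assay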
Description: SANGER: Inhibition of human KP-N-YN cell growth in a cell viability assay.

NCI-H187 = assay: cells; type: functional, cell-based, Homo sapiens; settings: Homo sapiens, NCI-H187;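 note: growth inhibition of NCI-H187 cells, read out as cell viability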
Description: SANGER: Inhibition of human NCI-H187 cell growth in a cell viability assay.

SNU-C1 = assay: cells; type: functional, cell-based, Homo sapiens; settings: Homo sapiens, SNU-C1;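 note: growth inhibition of SNU-C1 human cells, read out by a cell viability assay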
Description: SANGER: Inhibition of human SNU-C1 cell growth in a cell viability assay.

AGS = assay: cells; type: functional, cell-based; settings: Homo sapiens;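 note: growth inhibition of AGS cells, determined with a cell viability assay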
Description: SANGER: Inhibition of human AGS cell growth in a cell viability assay.

ASPC1 = assay: cells; type: functional, cell-based; settings: Homo sapiens;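 note: growth inhibition of AsPC-1 cells, read out with a cell viability assay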
Description: SANGER: Inhibition of human AsPC-1 cell growth in a cell viability assay.

NY = assay: cells; type: functional, cell-based; settings: Homo sapiens
Description: SANGER: Inhibition of human NY cell growth in a cell viability assay.

SW1417 = assay: cells; type: functional, cell-based; settings: Homo sapiens;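 note: growth inhibition of human SW1417 cells, read out with a cell viability assay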
Description: SANGER: Inhibition of human SW1417 cell growth in a cell viability assay.

EFO-27 = assay: cells; type: functional, cell-based; settings: Homo sapiens;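 note: growth inhibition of EFO-27 cells, read out with a cell viability assay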
Description: SANGER: Inhibition of human EFO-27 cell growth in a cell viability assay.

G-401 = assay: cells; type: functional, cell-based; settings: Homo sapiens
Description: SANGER: Inhibition of human G-401 cell growth in a cell viability assay.

KYSE-70 cell line = assay: cells; type: functional, cell-based; settings: Homo sapiens;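 note: cell viability assay read-out, with IC50 expressing suppression of KYSE-70 cell growth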
Description: SANGER: Inhibition of human KYSE-70 cell growth in a cell viability assay.

NCI-H1623 = assay: cells; type: functional, cell-based; settings: Homo sapiens;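 note: cell viability assay used as the read-out for growth inhibition of NCI-H1623 cells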
Description: SANGER: Inhibition of human NCI-H1623 cell growth in a cell viability assay.

SIG-M5 = assay: cells; type: functional, cell-based, Homo sapiens; settings: Homo sapiens, SIG-M5;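 note: cell viability assay read-out, measuring how strongly growth of cultured human SIG-M5 cells is inhibited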
Description: SANGER: Inhibition of human SIG-M5 cell growth in a cell viability assay.

A 172 = assay: cells; type: functional, cell-based; settings: Homo sapiens;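 note: growth inhibition of A172 cells, measured with a cell viability readout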
Description: SANGER: Inhibition of human A172 cell growth in a cell viability assay.

TUR = assay: cells; type: functional, cell-based, Homo sapiens; settings: Homo sapiens, TUR;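 note: growth inhibition of human TUR cells, read out with a cell viability assay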
Description: SANGER: Inhibition of human TUR cell growth in a cell viability assay.

TALL-1 = assay: cells; type: functional, cell-based, Homo sapiens; settings: Homo sapiens, TALL-1;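 note: growth inhibition of cultured human TALL-1 cells, read out by a cell viability assay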
Description: SANGER: Inhibition of human TALL-1 cell growth in a cell viability assay.

TYK-nu = assay: cells; type: functional, cell-based; settings: Homo sapiens;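 note: growth inhibition of human TYK-nu cells, read out by a cell viability assay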
Description: SANGER: Inhibition of human TYK-nu cell growth in a cell viability assay.

MG-63 = assay: cells; type: functional, cell-based; settings: Homo sapiens;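 note: growth inhibition of human MG-63 cells, read out with a cell viability assay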
Description: SANGER: Inhibition of human MG-63 cell growth in a cell viability assay.

L-540 = assay: cells; type: functional, cell-based, Homo sapiens; settings: Homo sapiens, L-540;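 note: growth inhibition of the human L-540 cell line, read out with a viability assay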
Description: SANGER: Inhibition of human L-540 cell growth in a cell viability assay.

SK-MEL-24 = assay: cells; type: functional, cell-based; settings: Homo sapiens;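 note: growth inhibition read out by a cell viability assay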
Description: SANGER: Inhibition of human SK-MEL-24 cell growth in a cell viability assay.

HT-1080 = assay: cells; type: functional, cell-based; settings: Homo sapiens
Description: SANGER: Inhibition of human HT-1080 cell growth in a cell viability assay.

CAL-12T = assay: cells; type: functional, cell-based; settings: Homo sapiens;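 note: growth inhibition of human CAL-12T cells, read out with a cell viability assay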
Description: SANGER: Inhibition of human CAL-12T cell growth in a cell viability assay.

MKN-45 = assay: cells; type: functional, cell-based; settings: Homo sapiens;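 note: growth inhibition of human MKN-45 cells, measured with a cell viability assay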
Description: SANGER: Inhibition of human MKN45 cell growth in a cell viability assay.

HCC1806 = assay: cells; type: functional, cell-based; settings: Homo sapiens;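 note: growth inhibition of the cancer cell line, determined with a cell viability assay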
Description: SANGER: Inhibition of human HCC1806 cell growth in a cell viability assay.

SK-MM-2 = assay: cells; type: functional, cell-based, Homo sapiens; settings: Homo sapiens, SK-MM-2;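 note: growth inhibition of human SK-MM-2 cells, read out with a cell viability assay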
Description: SANGER: Inhibition of human SK-MM-2 cell growth in a cell viability assay.

IM-9 = assay: SANGER: Inhibition of human IM-9 cell growth in a cell viability assay.; type: functional, cell-based; settings: Homo sapiens, IM-9
T-24 = assay: cells; type: functional, cell-based; settings: Homo sapiens;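 note: growth inhibition of T-24 cells, read out with a cell viability assay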
Description: SANGER: Inhibition of human T-24 cell growth in a cell viability assay.

RMG-I = assay: cells; type: functional, cell-based; settings: Homo sapiens;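 note: growth inhibition of human RMG-I cells, read out with a cell viability assay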
Description: SANGER: Inhibition of human RMG-I cell growth in a cell viability assay.

FTC-133 = assay: cells; type: functional, cell-based; settings: Homo sapiens
LP-1 = assay: cells; type: functional, cell-based, Homo sapiens; settings: Homo sapiens, LP-1;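 note: growth inhibition of human LP-1 cells, with the read-out taken from a cell viability assay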
Description: SANGER: Inhibition of human LP-1 cell growth in a cell viability assay.

NCI-H345 = assay: cells; type: functional, cell-based, Homo sapiens; settings: Homo sapiens, NCI-H345;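 note: growth inhibition of NCI-H345 cells measured with a cell viability assay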
Description: SANGER: Inhibition of human NCI-H345 cell growth in a cell viability assay.

23132-87 = assay: cells; type: functional, cell-based; settings: Homo sapiens
Description: SANGER: Inhibition of human 23132-87 cell growth in a cell viability assay.

SW48 = assay: cells; type: functional, cell-based; settings: Homo sapiens;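 note: growth inhibition of SW48 cells, read out with a cell viability assay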
Description: SANGER: Inhibition of human SW48 cell growth in a cell viability assay.

DMS-153 = assay: cells; type: functional, cell-based, Homo sapiens; settings: Homo sapiens, DMS-153
Description: SANGER: Inhibition of human DMS-153 cell growth in a cell viability assay.

Daudi = assay: cells; type: functional, cell-based, Homo sapiens; settings: Homo sapiens, Daudi;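 note: growth inhibition of Daudi cells, read out by a viability assay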
Description: SANGER: Inhibition of human Daudi cell growth in a cell viability assay.

NCI-H1436 = assay: cells; type: functional, cell-based, Homo sapiens; settings: Homo sapiens, NCI-H1436;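 note: growth suppression of human NCI-H1436 cells, determined with a cell viability readout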
Description: SANGER: Inhibition of human NCI-H1436 cell growth in a cell viability assay.

RPMI 8402 = assay: SANGER: Inhibition of human RPMI-8402 cell growth in a cell viability assay.; type: functional, cell-based; settings: Homo sapiens, RPMI 8402
A-431 = assay: cells; type: functional, cell-based; settings: Homo sapiens;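 note: growth inhibition of A-431 cells, determined with a cell viability read-out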
Description: SANGER: Inhibition of human A431 cell growth in a cell viability assay.

CAL-62 = assay: cells; type: functional, cell-based; settings: Homo sapiens;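 note: growth inhibition of CAL-62 cells, read out with a cell viability assay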
Description: SANGER: Inhibition of human CAL-62 cell growth in a cell viability assay.

HT-3 = assay: cells; type: functional, cell-based; settings: Homo sapiens;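 note: growth inhibition measured with a cell viability readout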
Description: SANGER: Inhibition of human HT-3 cell growth in a cell viability assay.

SBC-5 = assay: cells; type: functional, cell-based; settings: Homo sapiens;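 note: cell viability assay read-out, IC50 is the concentration that inhibits growth of the cells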
Description: SANGER: Inhibition of human SBC-5 cell growth in a cell viability assay.

HT55 = assay: cells; type: functional, cell-based; settings: Homo sapiens;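 note: cell viability readout measuring growth inhibition of human HT55 cells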
Description: SANGER: Inhibition of human HT55 cell growth in a cell viability assay.

NCI-H2452 = assay: cells; type: functional, cell-based; settings: Homo sapiens;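 note: growth inhibition of NCI-H2452 cells, read out with a cell viability assay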
Description: SANGER: Inhibition of human NCI-H2452 cell growth in a cell viability assay.

SiHa = assay: cells; type: functional, cell-based; settings: Homo sapiens;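 note: Viability-based readout of growth inhibition in SiHa cells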
Description: SANGER: Inhibition of human SiHa cell growth in a cell viability assay.

HCC 2998 = assay: cells; type: functional, cell-based; settings: Homo sapiens;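 note: growth inhibition of human HCC2998 cells, measured with a cell viability read-out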
Description: SANGER: Inhibition of human HCC2998 cell growth in a cell viability assay.

SNU-16 = assay: cells; type: functional, cell-based, Homo sapiens; settings: Homo sapiens, SNU-16;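 note: growth inhibition of human SNU-16 cells, determined with a cell viability readout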
Description: SANGER: Inhibition of human NCI-SNU-16 cell growth in a cell viability assay.

HCC70 = assay: cells; type: functional, cell-based; settings: Homo sapiens;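 note: cell viability assay measuring how strongly the compound suppresses proliferation of HCC70 cells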
Description: SANGER: Inhibition of human HCC70 cell growth in a cell viability assay.

RPMI-7951 = assay: cells; type: functional, cell-based; settings: Homo sapiens
Description: SANGER: Inhibition of human RPMI-7951 cell growth in a cell viability assay.

PC-3 = assay: cells; type: functional, cell-based; settings: Homo sapiens;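 note: cell viability assay measuring growth inhibition of PC-3 cells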
Description: SANGER: Inhibition of human PC-3 cell growth in a cell viability assay.

NCI-H2052 = assay: cells; type: functional, cell-based; settings: Homo sapiens;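 note: growth inhibition of NCI-H2052 cells, read out with a cell viability assay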
Description: SANGER: Inhibition of human NCI-H2052 cell growth in a cell viability assay.

M059J = assay: cells; type: functional, cell-based; settings: Homo sapiens;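 note: growth inhibition of M059J cells, read out with a cell viability assay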
Description: SANGER: Inhibition of human M059J cell growth in a cell viability assay.

REH = assay: cells; type: functional, cell-based, Homo sapiens; settings: Homo sapiens, REH;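 note: growth inhibition of REH cells determined with a cell viability read-out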
Description: SANGER: Inhibition of human REH cell growth in a cell viability assay.

SUP-T1 = assay: cells; type: functional, cell-based, Homo sapiens; settings: Homo sapiens, SUP-T1;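 note: growth inhibition of human SUP-T1 cells, read out as cell viability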
Description: SANGER: Inhibition of human SUP-T1 cell growth in a cell viability assay.

DMS-79 = assay: cells; type: functional, cell-based, Homo sapiens; settings: Homo sapiens, DMS-79
Description: SANGER: Inhibition of human DMS-79 cell growth in a cell viability assay.

EC-GI-10 = assay: cells; type: functional, cell-based, Homo sapiens; settings: Homo sapiens, EC-GI-10
Description: SANGER: Inhibition of human EC-GI-10 cell growth in a cell viability assay.

MDA-MB-415 = assay: cells; type: functional, cell-based; settings: Homo sapiens
BC-3 = assay: cells; type: functional, cell-based, Homo sapiens; settings: Homo sapiens, BC-3;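 note: cell viability assay measuring growth inhibition of human BC-3 cells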
Description: SANGER: Inhibition of human BC-3 cell growth in a cell viability assay.

U-251 = assay: cells; type: functional, cell-based; settings: Homo sapiens;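 note: growth inhibition of human U-251 cells, read out through a cell viability assay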
Description: SANGER: Inhibition of human U251 cell growth in a cell viability assay.

`COc1ccc(-c2cc3nccn3c(Nc3ncccc3C(N)=O)n2)cc1OC` was tested, and the IC50 (OPM-2) was 6.16 µM, the IC50 (CP50-MEL-B) was over 8 µM and the IC50 (KP-N-YN) was over 8 µM. It also gave an IC50 (NCI-H187) of over 8 µM, an IC50 (SNU-C1) of over 8 µM and an IC50 (AGS) of over 8 µM. It also gave an IC50 (ASPC1) of over 8 µM, an IC50 (NY) of over 8 µM and an IC50 (SW1417) of over 8 µM. It also gave an IC50 (EFO-27) of 2.06 µM, an IC50 (G-401) of 5.75 µM and an IC50 (KYSE-70 cell line) of over 8 µM. It also gave an IC50 (NCI-H1623) of over 8 µM, an IC50 (SIG-M5) of 0.848 µM and an IC50 (A 172) of 2.22 µM. It also gave an IC50 (TUR) of 2.57 µM, an IC50 (TALL-1) of over 8 µM and an IC50 (TYK-nu) of over 8 µM. For the same molecule, the IC50 (MG-63) was over 8 µM, the IC50 (L-540) was over 8 µM and the IC50 (SK-MEL-24) was over 8 µM. The IC50 (HT-1080) was 3.23 µM, the IC50 (CAL-12T) was 0.496 µM and the IC50 (MKN-45) was over 8 µM. For the same molecule, the IC50 (HCC1806) was over 8 µM, the IC50 (SK-MM-2) was over 8 µM and the IC50 (IM-9) was over 8 µM. For the same molecule, the IC50 (T-24) was over 8 µM, the IC50 (RMG-I) was over 8 µM and the IC50 (FTC-133) was over 8 µM. The IC50 (LP-1) was 4.02 µM, the IC50 (NCI-H345) was over 8 µM and the IC50 (23132-87) was over 8 µM. It also gave an IC50 (SW48) of 7.73 µM, an IC50 (DMS-153) of over 8 µM and an IC50 (Daudi) of 0.607 µM. For the same molecule, the IC50 (NCI-H1436) was over 8 µM, the IC50 (RPMI 8402) was 1.77 µM and the IC50 (A-431) was 1.73 µM. It also gave an IC50 (CAL-62) of over 8 µM, an IC50 (HT-3) of over 8 µM and an IC50 (SBC-5) of over 8 µM. The IC50 (HT55) was over 8 µM, the IC50 (NCI-H2452) was over 8 µM and the IC50 (SiHa) was over 8 µM. The IC50 (HCC 2998) was 5.55 µM, the IC50 (SNU-16) was over 8 µM and the IC50 (HCC70) was 1.93 µM. The IC50 (RPMI-7951) was 3.48 µM, the IC50 (PC-3) was over 8 µM and the IC50 (NCI-H2052) was over 8 µM. For the same molecule, the IC50 (M059J) was 2.84 µM, the IC50 (REH) was 2.25 µM and the IC50 (SUP-T1) was 2.1 µM. The IC50 (DMS-79) was over 8 µM, the IC50 (EC-GI-10) was over 8 µM and the IC50 (MDA-MB-415) was over 8 µM. For the same molecule, the IC50 (BC-3) was 2.47 µM and the IC50 (U-251) was over 8 µM.
In the case of `OC[C@H](Cc1ccccc1)Nc1nc(Oc2ccc3c(c2)CCC3)nc2c1ncn2Cc1ccc(-c2ccccc2)cc1`, the IC50 (OPM-2) is reported as over 10.2 µM, the IC50 (CP50-MEL-B) is reported as over 10.2 µM and the IC50 (KP-N-YN) is reported as over 10.2 µM. It also gave an IC50 (NCI-H187) of over 10.2 µM, an IC50 (SNU-C1) of 4.22 µM and an IC50 (AGS) of 6.71 µM. For the same molecule, the IC50 (ASPC1) was over 10.2 µM, the IC50 (NY) was over 10.2 µM and the IC50 (SW1417) was over 10.2 µM. It also gave an IC50 (EFO-27) of over 10.2 µM, an IC50 (G-401) of over 10.2 µM and an IC50 (KYSE-70 cell line) of over 10.2 µM. The IC50 (NCI-H1623) was over 10.2 µM, the IC50 (SIG-M5) was 0.654 µM and the IC50 (A 172) was 6.16 µM. For the same molecule, the IC50 (TUR) was over 10.2 µM, the IC50 (TALL-1) was over 10.2 µM and the IC50 (TYK-nu) was over 10.2 µM. It also gave an IC50 (MG-63) of 4.63 µM, an IC50 (L-540) of over 10.2 µM and an IC50 (SK-MEL-24) of over 10.2 µM. It also gave an IC50 (HT-1080) of 5.13 µM, an IC50 (CAL-12T) of 2.48 µM and an IC50 (MKN-45) of over 10.2 µM. The IC50 (HCC1806) was over 10.2 µM, the IC50 (SK-MM-2) was over 10.2 µM and the IC50 (IM-9) was over 10.2 µM. The IC50 (T-24) was over 10.2 µM, the IC50 (RMG-I) was over 10.2 µM and the IC50 (FTC-133) was over 10.2 µM. It also gave an IC50 (LP-1) of over 10.2 µM, an IC50 (NCI-H345) of over 10.2 µM and an IC50 (23132-87) of 6.07 µM. For the same molecule, the IC50 (SW48) was over 10.2 µM, the IC50 (DMS-153) was over 10.2 µM and the IC50 (Daudi) was over 10.2 µM. For the same molecule, the IC50 (NCI-H1436) was over 10.2 µM, the IC50 (RPMI 8402) was over 10.2 µM and the IC50 (A-431) was 3.32 µM. It also gave an IC50 (CAL-62) of 9.44 µM, an IC50 (HT-3) of over 10.2 µM and an IC50 (SBC-5) of over 10.2 µM. The IC50 (HT55) was over 10.2 µM, the IC50 (NCI-H2452) was over 10.2 µM and the IC50 (SiHa) was over 10.2 µM. The IC50 (HCC 2998) was over 10.2 µM, the IC50 (SNU-16) was over 10.2 µM and the IC50 (HCC70) was over 10.2 µM. For the same molecule, the IC50 (RPMI-7951) was 1.41 µM, the IC50 (PC-3) was over 10.2 µM and the IC50 (NCI-H2052) was over 10.2 µM. For the same molecule, the IC50 (M059J) was over 10.2 µM, the IC50 (REH) was over 10.2 µM and the IC50 (SUP-T1) was 4.97 µM. It also gave an IC50 (DMS-79) of over 10.2 µM, an IC50 (EC-GI-10) of over 10.2 µM and an IC50 (MDA-MB-415) of over 10.2 µM. It also gave an IC50 (BC-3) of 6.66 µM and an IC50 (U-251) of over 10.2 µM.
